# Literature values, collected in patent US20050014827A1, “Synergistic medicament containing flavoring agents and having an antagonistic regenerative and/or protagonist decontamination effect” (priority 2000, published 2005).
# Legend:
# reverse transcriptase = details: 19% ethanol
# HTLV-III/LAV/HIV = details: 50% ethanol; 23° C.; 10 min; with and without additional protein loading
# HBV = details: 70% isopropyl alcohol; 10 min; room temperature; serum dried onto plastic surface
smiles,measurement,setting,value
CCO [ethanol],detection of viral reverse transcriptase,reverse transcriptase,can no longer be detected
same,infectiousness of the virus,HTLV-III/LAV/HIV,destroys the infectiousness
CC(C)O [isopropyl alcohol],inactivation of 10^6 HBV doses infectious towards chimpanzees,HBV,inactivated
